Test results: patent US20230167467A1, “METHODS AND COMPOSITIONS FOR THE PRODUCTION OF ISOBUTENE” (University of Alaska Anchorage, priority 2020, published 2023)

System: Engineered strains of E. coli
Type: cell-based
[1] = after solvent exposure, vs positive control

CC(C)=O [acetone]
expression of accBC (fatty acid biosynthesis): downregulated | expression of bssRS (decreasing biofilm material): upregulated | expression of chaperone genes groLS and dnaJK: increased expression | expression of gad genes: increase in expression | expression of gadABCE (acid resistance via GABA production): upregulated | expression of glpABC (glycerol to glycerone phosphate): increased in expression | expression of heat shock proteins and chaperones hslJORUV: upregulation | expression of ibpAB and clpAB (protein protection and repair): increased | expression of marA: upregulated | change in expression of gene adiA [1]: 1.50 ± 0.91 | change in expression of gene adiC [1]: −0.54 ± 1.10 | change in expression of gene adiY [1]: −0.57 ± 0.71 | change in expression of gene bhsA [1]: 4.49 ± 0.62 | change in expression of gene bssR [1]: 2.34 ± .46 | change in expression of gene bssS [1]: 5.02 ± .88 | change in expression of gene clpA [1]: 1.92 ± .68 | change in expression of gene clpB [1]: 4.51 ± .69 | change in expression of gene clpP [1]: 1.39 ± 0.63 | change in expression of gene coaA [1]: −3.10 ± 1.0 | change in expression of gene coaD [1]: 0.05 ± 1.01 | change in expression of gene cspA [1]: −4.58 ± 0.64 | change in expression of gene cspB [1]: −5.17 ± 1.49 | change in expression of gene cspC [1]: −0.95 ± .98 | change in expression of gene cspD [1]: 2.52 ± 0.63 | change in expression of gene cspE [1]: −2.45 ± 0.72 | change in expression of gene cspF [1]: −5.06 ± 1.34 | change in expression of gene dhaK [1]: 0.26 ± 0.67 | change in expression of gene dhaL [1]: −0.41 ± 0.74 | change in expression of gene dnaJ [1]: 2.96 ± 0.74 | change in expression of gene dnaK [1]: 4.58 ± 0.66 | change in expression of gene fabA [1]: −0.85 ± 0.84 | change in expression of gene fabB [1]: 1.61 ± 0.72 | change in expression of gene fabD [1]: −1.74 ± 0.59 | change in expression of gene flgA [1]: −2.14 ± 1.68 | change in expression of gene flgB [1]: −4.07 ± 1.67 | change in expression of gene flgC [1]: −4.24 ± 2.06 | change in expression of gene flgD [1]: −4.39 ± 2 | change in expression of gene flgE [1]: −4.02 ± 1.30 | change in expression of gene flgF [1]: −2.98 ± 1.7 | change in expression of gene flgG [1]: −4.98 ± 1.68 | change in expression of gene flgH [1]: −2.24 ± 1.82 | change in expression of gene gabD [1]: 0.73 ± 1.41 | change in expression of gene gabP [1]: −1.06 ± 1.42 | change in expression of gene gabT [1]: 0.34 ± 1.38 | change in expression of gene gadA [1]: 4.57 ± 0.70 | change in expression of gene gadB [1]: 4.53 ± 0.82 | change in expression of gene gadC [1]: 4.83 ± 0.82 | change in expression of gene gadE [1]: 2.23 ± .62 | change in expression of gene gadW [1]: 1.58 ± 1 | change in expression of gene gadX [1]: 1.71 ± 0.59 | change in expression of gene gadY [1]: 0.05 ± 0.83 | change in expression of gene glpA [1]: 4.83 ± 0.91 | change in expression of gene glpB [1]: 2.81 ± 0.69 | change in expression of gene glpC [1]: 3.12 ± 0.87 | change in expression of gene groL [1]: 4.18 ± 0.58 | change in expression of gene groS [1]: 4.58 ± 0.51 | change in expression of gene hchA [1]: 4.64 ± 0.64 | change in expression of gene hslJ [1]: −0.10 ± 0.75 | change in expression of gene hslO [1]: 2.78 ± 0.69 | change in expression of gene hslR [1]: 3.01 ± 0.70 | change in expression of gene hslU [1]: 2.69 ± 0.59 | change in expression of gene hslV [1]: 2.24 ± 0.67 | change in expression of gene ibpA [1]: 5.64 ± 1.22 | change in expression of gene ibpB [1]: 6.70 ± 1.51 | change in expression of gene lhgO [1]: 1.82 ± 1.73 | change in expression of gene lipA [1]: −1.03 ± 0.69 | change in expression of gene lipB [1]: −1.11 ± 0.75 | change in expression of gene narG [1]: 2.69 ± 0.70 | change in expression of gene narH [1]: 2.94 ± 0.66 | change in expression of gene narI [1]: 1.48 ± 1.02 | change in expression of gene narJ [1]: 1.75 ± 0.74 | change in expression of gene narK [1]: 0.21 ± 0.96 | change in expression of gene potA [1]: −3.62 ± 0.91 | change in expression of gene potB [1]: −2.22 ± 1.43 | change in expression of gene potC [1]: −3.06 ± 1.45 | change in expression of gene pspA [1]: 2.10 ± 0.60 | change in expression of gene pspB [1]: 0.76 ± 0.80 | change in expression of gene rpoA [1]: −0.20 ± 0.47 | change in expression of gene rpoB [1]: −0.26 ± 0.43 | change in expression of gene rpoC [1]: −0.29 ± 0.43 | change in expression of gene rpoD [1]: 1.41 ± 0.72 | change in expression of gene rpoE [1]: −0.26 ± 0.66 | change in expression of gene rpoH [1]: 1.72 ± 0.55 | change in expression of gene rpoN [1]: −1.18 ± 0.54 | change in expression of gene rpoS [1]: 1.63 ± 0.51 | change in expression of gene rpoZ [1]: −1.83 ± 0.60 | change in expression of gene spy [1]: 1.90 ± 0.95 | change in expression of gene tatA [1]: −1.15 ± 0.57 | change in expression of gene tatB [1]: −1.35 ± 0.65 | change in expression of gene tatC [1]: −2.55 ± 1.23 | change in expression of gene tatD [1]: −1.90 ± 1.23 | change in expression of gene tatE [1]: 0.41 ± 0.70 | number of genes with significant changes in expression (vs control, Bon Ferroni corrected p-value<0.05): 399 genes
